# Test results taken from ChEMBL document CHEMBL4732150 (J Med Chem, 2021).
# pIC50: −log10 of the molar value.
# What was measured:
# in vivo [1] = conditions: Sprague-Dawley, rat, po, 6 mg/kg
# [2] = Half life in CD1 mouse liver microsomes preincubated for 10 mins under shaking condition followed by NADPH generating system addition and measured up to 60 mins by LC-MS/MS analysis
# [3] = Half life in cynomolgus monkey liver microsomes preincubated for 10 mins under shaking condition followed by NADPH generating system addition and measured up to 60 mins by LC-MS/MS analysis
# [4] = Oral bioavailability in Sprague-Dawley rat at 2 mg/kg, IG administered as single dose and measured upto 24 hrs by LC-MS/MS analysis; format: ADME, organism-based; conditions: in vivo
# Cytochrome P450 2D6 = Cytochrome P450 2D6 (Homo sapiens, UniProt P10635); assay: Inhibition of CYP2D6 in human liver microsomes using dextromethorphan as substrate preincubated for 10 mins in presence of NADPH generating system followed by substrate addition and measured after 20 mins by LC-MS/MS analysis; format: ADME
# in vitro = conditions: human, liver microsomes
# [5] = (§1) Drug metabolism in CD1 mouse liver microsomes assessed as 3,3-dideuterio-N-[4-methoxy-2-(methylamino)-5-[[4-[1-(trideuteriomethyl)indol-3-yl]pyrimidin-2-yl]amino]phenyl]prop-2-enamide metabolite formation preincubated for 10 mins under shaking condition followed by NADPH generating system addition and measured up to 60 mins by LC-MS/MS analysis; format: ADME, Microsome; conditions: 1 h, time <=70 min
# [6] = (§2) Drug metabolism in CD1 mouse liver microsomes assessed as 3,3-dideuterio-N-[2-(2-dimethylaminoethylamino)-4-methoxy-5-[[4-[1-(trideuteriomethyl)indol-3-yl]pyrimidin-2-yl]amino]phenyl]prop-2-enamide metabolite formation preincubated for 10 mins under shaking condition followed by NADPH generating system addition and measured up to 60 mins by LC-MS/MS analysis; format: ADME, Microsome; conditions: 1 h, time <=70 min
# [7] = Half life in Beagle dog liver microsomes preincubated for 10 mins under shaking condition followed by NADPH generating system addition and measured up to 60 mins by LC-MS/MS analysis
# [8] = Drug metabolism in Beagle dog liver microsomes assessed as 3,3-dideuterio-N-[4-methoxy-2-[methyl-[2-(methylamino)ethyl]amino]-5-[[4-[1-(trideuteriomethyl)indol-3-yl]pyrimidin-2-yl]amino]phenyl]prop-2-enamide metabolite formation preincubated for 10 mins under shaking condition followed by NADPH generating system addition and measured up to 60 mins by LC-MS/MS analysis; format: ADME, Canis lupus familiaris, Microsome; conditions: 1 h, time <=70 min
# [9] = Drug metabolism in Beagle dog liver microsomes assessed as 3,3-dideuterio-N-[2-(2-dimethylaminoethylamino)-4-methoxy-5-[[4-[1-(trideuteriomethyl)indol-3-yl]pyrimidin-2-yl]amino]phenyl]prop-2-enamide metabolite formation preincubated for 10 mins under shaking condition followed by NADPH generating system addition and measured up to 60 mins by LC-MS/MS analysis; format: ADME, Canis lupus familiaris, Microsome; conditions: 1 h, time <=70 min
# [10] = Half life in Sprague-Dawley rat liver microsomes preincubated for 10 mins under shaking condition followed by NADPH generating system addition and measured up to 20 mins by LC-MS/MS analysis
# [11] = as §1, with “Sprague-Dawley rat” for “CD1 mouse”; format: ADME, Microsome; conditions: 1 h, time <=70 min
# [12] = Tmax in Sprague-Dawley rat at 2 mg/kg, IG administered as single dose and measured upto 24 hrs by LC-MS/MS analysis; format: ADME, organism-based; conditions: in vivo, po
# Cytochrome P450 2B6 = biological target: T1, Cytochrome P450 2B6 (Homo sapiens, UniProt P20813); assay: Inhibition of CYP2B6 in human liver microsomes using bupropion as substrate preincubated for 10 mins in presence of NADPH generating system followed by substrate addition and measured after 10 mins by LC-MS/MS analysis; format: ADME
# T1 sequence (P20813 whole entry): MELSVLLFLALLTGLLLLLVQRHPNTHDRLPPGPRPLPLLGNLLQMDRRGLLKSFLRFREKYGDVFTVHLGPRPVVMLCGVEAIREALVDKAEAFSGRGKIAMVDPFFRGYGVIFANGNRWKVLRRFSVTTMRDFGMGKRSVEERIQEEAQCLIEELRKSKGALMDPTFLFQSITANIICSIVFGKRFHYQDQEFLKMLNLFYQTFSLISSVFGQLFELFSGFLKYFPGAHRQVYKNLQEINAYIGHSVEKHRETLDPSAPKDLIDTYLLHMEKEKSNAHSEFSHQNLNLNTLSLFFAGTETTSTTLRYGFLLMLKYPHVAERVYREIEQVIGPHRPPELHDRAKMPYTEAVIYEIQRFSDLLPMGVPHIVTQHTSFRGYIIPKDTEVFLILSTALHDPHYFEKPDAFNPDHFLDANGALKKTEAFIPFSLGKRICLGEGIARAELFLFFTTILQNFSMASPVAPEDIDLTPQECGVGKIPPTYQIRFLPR
# [13] = as §2, with “Sprague-Dawley rat” for “CD1 mouse”; format: ADME, Microsome; conditions: 1 h, time <=70 min
# [14] = Intrinsic clearance in Beagle dog liver microsomes preincubated for 10 mins under shaking condition followed by NADPH generating system addition and measured up to 60 mins by LC-MS/MS analysis; format: ADME, Canis lupus familiaris, Microsome; conditions: 1 h, time <=70 min
# [15] = Cmax in Sprague-Dawley rat at 2 mg/kg, iv administered as single dose and measured upto 24 hrs by LC-MS/MS analysis; format: ADME, organism-based; set-up: route intravenous, dose 2 mg/kg, time <=24; conditions: in vivo
# Cytochrome P450 1A2 = biological target: T2, Cytochrome P450 1A2 (Homo sapiens, UniProt P05177); assay: Inhibition of CYP1A2 in human liver microsomes using phenacetin as substrate preincubated for 10 mins in presence of NADPH generating system followed by substrate addition and measured after 3 mins by LC-MS/MS analysis; format: ADME
# T2 sequence (P05177 whole entry): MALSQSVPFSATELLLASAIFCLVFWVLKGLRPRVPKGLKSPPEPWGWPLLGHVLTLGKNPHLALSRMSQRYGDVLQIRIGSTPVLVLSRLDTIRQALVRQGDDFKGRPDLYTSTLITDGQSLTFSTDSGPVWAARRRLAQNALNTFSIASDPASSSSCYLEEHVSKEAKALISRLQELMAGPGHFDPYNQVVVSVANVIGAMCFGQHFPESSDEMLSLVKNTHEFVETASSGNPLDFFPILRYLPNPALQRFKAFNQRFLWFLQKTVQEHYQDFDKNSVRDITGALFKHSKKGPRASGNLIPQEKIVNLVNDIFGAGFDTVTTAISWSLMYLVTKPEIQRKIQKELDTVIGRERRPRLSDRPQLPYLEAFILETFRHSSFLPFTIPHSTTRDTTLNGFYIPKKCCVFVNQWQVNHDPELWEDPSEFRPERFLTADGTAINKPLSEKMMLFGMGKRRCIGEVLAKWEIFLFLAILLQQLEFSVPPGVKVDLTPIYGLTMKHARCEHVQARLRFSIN
# in vivo [16] = conditions: Sprague-Dawley, rat, plasma, po, 6 mg/kg
# [17] = Oral bioavailability in Sprague-Dawley rat at 6 mg/kg/day, IG administered for 7 consecutive days by LC-MS/MS analysis; format: ADME, organism-based; conditions: in vivo, time 7 day
# Cytochrome P450 2C19 = Cytochrome P450 2C19 (Homo sapiens, UniProt P33261); assay: Inhibition of CYP2C19 in human liver microsomes using S-mephenytoin as substrate preincubated for 10 mins in presence of NADPH generating system followed by substrate addition and measured after 20 mins by LC-MS/MS analysis; format: ADME
# [18] = Cmax in Sprague-Dawley rat at 6 mg/kg/day, IG and measured on day 7 by LC-MS/MS analysis; format: ADME, organism-based; set-up: route […], dose 6 mg/kg/day, time 7 day; conditions: in vivo, po
# [19] = Tmax in Sprague-Dawley rat assessed as AZ5104-D2 at 6 mg/kg/day, IG administered for 7 consecutive days by LC-MS/MS analysis; format: ADME, organism-based; conditions: in vivo, po, 168 h, time 7 day
# Sequence of Cytochrome P450 2C19 (P33261 whole entry): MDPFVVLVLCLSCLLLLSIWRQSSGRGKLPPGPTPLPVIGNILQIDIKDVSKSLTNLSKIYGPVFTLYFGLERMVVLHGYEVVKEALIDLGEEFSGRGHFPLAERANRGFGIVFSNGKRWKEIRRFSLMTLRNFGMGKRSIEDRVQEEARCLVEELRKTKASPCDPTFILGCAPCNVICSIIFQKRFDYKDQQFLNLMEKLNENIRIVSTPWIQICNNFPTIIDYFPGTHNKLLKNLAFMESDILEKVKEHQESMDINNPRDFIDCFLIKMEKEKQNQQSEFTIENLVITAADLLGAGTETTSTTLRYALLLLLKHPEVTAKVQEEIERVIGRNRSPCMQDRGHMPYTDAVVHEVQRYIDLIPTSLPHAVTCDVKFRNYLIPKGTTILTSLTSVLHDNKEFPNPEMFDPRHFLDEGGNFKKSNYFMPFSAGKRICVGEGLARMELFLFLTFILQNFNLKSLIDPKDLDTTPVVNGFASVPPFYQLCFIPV
# Sequence of Cytochrome P450 2D6 (P10635 whole entry): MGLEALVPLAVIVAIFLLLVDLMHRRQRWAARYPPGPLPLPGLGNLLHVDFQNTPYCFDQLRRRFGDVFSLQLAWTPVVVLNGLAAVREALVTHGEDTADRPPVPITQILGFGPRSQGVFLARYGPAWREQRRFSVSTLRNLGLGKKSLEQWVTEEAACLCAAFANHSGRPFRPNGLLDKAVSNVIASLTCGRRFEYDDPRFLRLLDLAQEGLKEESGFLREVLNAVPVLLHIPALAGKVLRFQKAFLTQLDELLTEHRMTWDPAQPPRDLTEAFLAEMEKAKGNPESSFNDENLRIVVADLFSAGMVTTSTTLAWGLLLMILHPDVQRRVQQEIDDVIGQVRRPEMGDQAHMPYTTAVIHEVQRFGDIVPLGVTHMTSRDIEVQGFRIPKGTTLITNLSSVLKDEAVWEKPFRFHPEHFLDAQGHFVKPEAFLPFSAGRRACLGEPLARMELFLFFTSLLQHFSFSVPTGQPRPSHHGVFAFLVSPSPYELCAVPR
compound,measurement,setting,value
CS(=O)(=O)O.[2H]C([2H])=CC(=O)Nc1cc(Nc2nccc(-c3cn(C([2H])([2H])[2H])c4ccccc34)n2)c(OC)cc1N(C)CCN(C)C,CL/F at 168 h,in vivo [1],325 mL/min/kg
same,half-life at 1 h,[2],23.7 min
same,half-life at 1 h,[3],25.6 min
same,bioavailability,[4],41.2%
same,pIC50,Cytochrome P450 2D6,< 4.30
same,half-life at 1 h,in vitro,144 min
same,Drug metabolism,[5],Metabolite_Detected
same,Drug metabolism,[6],Metabolite_Detected
same,half-life at 1 h,[7],22.6 min
same,Drug metabolism,[8],Metabolite_Detected
same,Drug metabolism,[9],Metabolite_Detected
same,half-life at 20 min,[10],34.6 min
same,Drug metabolism,[11],Metabolite_Detected
same,Tmax,[12],250 min
same,pIC50,Cytochrome P450 2B6,< 4.30
same,Drug metabolism,[13],Metabolite_Detected
same,CLint,[14],61.3 µL/min/mg
same,Cmax,[15],277 nM
same,pIC50,Cytochrome P450 1A2,4.40
same,half-life at 168 h,in vivo [16],196 min
same,bioavailability,[17],29.6%
same,pIC50,Cytochrome P450 2C19,4.37
same,Cmax,[18],180 nM
same,Tmax,[19],408 min
